{"source": "patent US20220175710A1", "about": "“COMBINATION THERAPY” (Akershus Universitetssykehus HF, priority 2019, published 2022)", "format_in_all_cases": "cell-based, human", "key": {"CHRNA7 [1]": {"system": "CHRNA7", "test": "Western blot of CHRNA7 (56 kDa band) in TPA differentiated THP-1 cells", "conditions": "for CHRNA7 (56 kDa protein) expression, conclusion in words: Table 1 / FIG. 4, both experiments", "description": "The cellular samples were tested for the presence of the α7 subtype of the nicotinic acetylcholine receptor (nAChR) by Western blot analysis on THP-1 cells that were incubated with and without Abeta1-42 and with and without DHA. The purpose of this was to show monocytic membrane expression of nAChR and to explore altered regulation of this receptor in response to DHA stimulation.\nThe THP-1 cells were seeded in 6-well plates with 2 mL per well at a concentration of 830 000 cells/mL (experiment 1) or 860 000 cells/ml (experiment 2), and differentiated using 100 nM TPA (12-O-Tetradecanoylphorbol-13-Acetate) for 24 hours. For the experiments, DHA was added to give a concentration of 100 uM (experiment 1) or 10 uM and 100 uM (experiment 2), and Aβ42 was added at a final concentration of 2.5 ng/ul.\nThe cells were incubated overnight (18 hours). Each DHA experiment had parallels of cells not incubated with DHA. After incubation the cells were kept cold, scraped loose and transferred to 15-ml tubes. Cells were washed twice with cold PBS before resuspended in 100 ul PBS and transferred to an Eppendorf tube. The cells were lysed through five freeze thaw cycles, and total protein in each sample was determined by the BCA protein assay. Samples were stored at −80° C. upon analysis.\nWestern blot analysis was performed cat no 21379-1-AP, Proteintech, using 1:1000 using dilution. The secondary antibody was a goat anti-rabbit IgG-HRP (cat no 4030-05, Southern Biotech) diluted 1:2000. Solvents for dilutions were as described below.\nSamples were dissolved in 4× Laemmli buffer w/ b-ME (BioRad and, respectively) denatured at 95° C. for 5 min, and a quantity of 12 μg protein/sample/well was loaded to the gel. A volume of 10 uL of Precision Plus protein Dual Xtra Color Standards (BioRad) was used for molecular weight estimation. The samples were resolved in 8-16% gradient SDS-PAGE (Criterion TGX precast gels, BioRad) and immunoblotted onto PVDF membranes (GE Healthcare). Membranes were blocked in 5% non-fat dried milk in 1× Tris Buffered Saline containing 0.1% Tween20 (1×TBS-T) (BioRad) at room temperature for 1 h and incubated overnight at 4° C. with primary antibodies in 1×TBS-T with 1% non-fat dried milk. After washing, the membranes were incubated with secondary antibody in 5% non-fat dried milk in 1×TBS-T for 1 h at room temperature. The blots were visualized by ECL Plus Western blotting detection system (GE Healthcare) according to the supplier's instructions. Membranes were visualized on the LAS-3000 mini (Fujifilm Corporation) and band intensities were quantified using MultiGauge analysis software (Fujifilm Corporation).\nBands presented are at the predicted MW of the nAChR (56 kDa).\n(§1) DHA: Docosahexaenoic acid, Aβ1-40 peptides: the conventional amyloid beta peptide containing 40 amino acids."}, "THP-1 cells": {"system": "THP-1 cells", "test": "IP LC-MS of Abeta-40 degradation in monocytic THP-1 cells", "description": "Firstly, a cell model was used to study the effect of the omega-3 fatty acid DHA on degradation of amyloid beta. Here, the THP-1 cells were incubated with and without DHA (1 μM), and subsequently with Abeta (1-40 aa, 10 ng/μL). Secondly, monocyte from healthy controls (NC) and patients with neurodegenerative diseases (AD) were isolated. In both these cases, the cells were lysed and IP LC-MS was performed.\nIn FIG. 1, each bar in the graph represents the accumulated cleavage sites on each position along the 40 amino acids in Abeta 1-40. Thus the bar contains peptides of various lengths, but with the same start or end amino acid. Three parallels were analysed for each condition/sample group, which refers to the triplicate incubations of each condition, with or without DHA.\nMonocytic THP-1 cells were used as a model system, and IP LC-MS as analytical approach to investigate the effect of DHA on monocytic Abeta-40 processing.\nA THP-1 cell line culture was matured and differentiated, split to be control and stimulated parallels and this was replicated to be performed a total of 7 times (controls n=7; DHA stimulated n=7). Test cells were incubated with DHA overnight, and all samples were incubated with Abeta-40 for 1 to 2 hours. The cells were lysed by freeze-thaw cycles prior to immunoprecipitation performed with two commercial and one in-house antibody. […]"}, "CHRFAM7A [2]": {"system": "CHRFAM7A", "test": "Western blot of CHRFAM7A in differentiated THP-1 cells", "conditions": "FIG. 5", "text": "as §1"}, "CHRNA7 [3]": {"system": "CHRNA7", "test": "Quantitative PCR of CHRNA7 transcription in THP-1 monocyte cultures", "conditions": "for CHRNA7 transcription (quantitative PCR): FIG. 6; for N/M ratio (CHRNA7/CHRFAM7A transcription) / CHRNA7 (\"N\") transcription relative to TPA-treated unstimulated condition: FIG. 7; for CHRNA7 (\"N\") transcription relative to TPA-treated unstimulated condition: overnight", "description": "(§2) The human acute monocytic leukemia cell line THP-1 (ATCC TIB-202, ATCC, US) was cultured in RPMI 1640 with GlutaMax (Gibco, Life Technologies, UK) supplemented with 10% fetal bovine serum (FBS), (Gibco, Life Technologies, UK) and 1% Antibiotic/Antimycotic (Gibco, Life Technologies, UK) at 37° C. and 5% CO2.\n(§3) 1,6 million cells were seeded in each well in 6-well plates and differentiated to macrophages by a 48 h treatment of 100 nM TPA (12-O-tetradecanoylphorbol-13-acetate), (Cell Signaling Technology, US). Cells were treated with 100 μM Docosahexaenoic acid (DHA), (Sigma Aldrich, Germany), 10 ng/ul Amyloid beta 1-40 (Aβ), (ApexBio, US), 10 μM PNU-120596, (Sigma Aldrich, Germany), 40 μM Galanthamine hydrobromide, (Sigma Aldrich, Germany) and combinations overnight (approximately 20 h).\n(§4) Total RNA was isolated with the RNeasy Plus Mini kit (Qiagen) using genomic DNA eliminator columns. THP-1 cells were lysed directly in the wells using 350 μl RLT Plus according to the protocol and stored at −80° C. The frozen lysate was incubated at 37° C. in a water bath until completely thawed and homogenized using QIAshredder (Qiagen) spin columns. RNA was eluted in 30 μl RNase free water and the quantity assessed using the NanoDrop ND-1000 Spectrophotometer (NanoDrop Technologies).\n(§5) 1 μg total RNA was reverse transcribed using the QuantiTect cDNA Reverse Transcription Kit (Qiagen). Due to low CHRNA7 expression (Cq values>38, Table 2), we increased RNA input to 2 μg, changed the reverse transcription kit to High Capacity Reverse Transcription Kit (Life Technologies AS) and the cDNA was preamplified using TaqMan PreAmp Master Mix (Life Technologies AS), running 18 cycles and diluted 1:20 (FIG. 7). We then obtained Cq values<27 (average 25,4) for CHRNA7 and <20 (average 18,6 for CHRFAM7A). Absolute quantification was run using CHRFAM7A and CHRNA7 synthetic oligonucleotides standards (GeneArt, Life Technologies AS). 2.5 ul cDNA diluted 1:20 after preamplification was applied per qPCR reaction using TaqMan gene expression assays CHRFAM7A (Hs04189909_m1) and CHRNA7 (Hs01063372_m1) (Thermo Fisher) and TaqMan Gene expression Master Mix (Life Technologies AS) in a total volume of 10 μl and run in triplicates on Quant Studio 7 (Applied Biosystems)."}, "CHRFAM7A [4]": {"system": "CHRFAM7A", "test": "Quantitative PCR of CHRFAM7A transcription in THP-1 monocyte cultures", "conditions": "for CHRFAM7A transcription (quantitative PCR): FIG. 6; for CHRFAM7A (\"M\") transcription relative to TPA-treated unstimulated condition: FIG. 7, overnight", "description": "as §2, §3, §4, §5"}, "CHRNA7 [5]": {"system": "CHRNA7", "test": "Western blot of CHRNA7 (56 kDa band) in TPA differentiated THP-1 cells", "conditions": "FIG. 5; co-stimulation with DHA and Aβ1-40 peptide, compared with DHA alone"}, "[6]": {"conditions": "co-stimulation with DHA and Aβ1-40 peptide, compared with DHA alone"}, "[7]": {"conditions": "stimulus as labelled plus Amyloid β 1-40 10 ng/ul"}, "[8]": {"conditions": "stimulus as labelled, nothing else added, 100 μM DHA, 10 μM PNU-120596, 40 μM Galanthamine hydrobromide, 10 ng/ul Aβ 1-40"}}, "note": "“Also recorded” adds a separate entry of the source.", "data": [{"molecule": "Ab1-42: the conventional amyloid beta peptide containing 42 amino acids", "values": [{"measurement": "~56 kDa Band signal intensity", "setting": "CHRNA7 [1]; Exp 1, Ab1-42 only, 2.5 ng/ul, 18 hours", "value": "1.7E+06"}, {"measurement": "~56 kDa Band signal intensity", "setting": "CHRNA7 [1]; Exp 2, Ab1-42 only, 2.5 ng/ul, 18 hours", "value": "2.1E+06"}, {"measurement": "CHRNA7 (56 kDa protein) expression, conclusion in words", "setting": "CHRNA7 [1]", "value": "lower expression"}]}, {"molecule": "CC/C=C\\C/C=C\\C/C=C\\C/C=C\\C/C=C\\C/C=C\\CCC(=O)O", "note": "[DHA, (4Z, 7Z, 10Z, 13Z, 16Z, 19Z)-4,7, 10, 13, 16, 19-docosahexaenoic acid]", "values": [{"measurement": "Abeta cut pattern (enzymatic activities), DHA versus no DHA", "setting": "THP-1 cells; DHA 1 μM, then Abeta 1-40 10 ng/μL, FIG. 1", "value": "differing enzymatic activities"}, {"measurement": "average ratio of catabolic peptides in DHA versus control samples", "setting": "THP-1 cells; DHA overnight, then Abeta-40 for 1 to 2 hours, controls n=7, DHA stimulated n=7, semi-quantitative", "value": "1.3 (12% RSD)"}, {"measurement": "~56 kDa Band signal intensity", "setting": "CHRNA7 [1]; Exp 1, 100 uM Dha alone, TPA differentiated THP-1, 18 hours", "value": "3.5E+06"}, {"measurement": "~56 kDa Band signal intensity", "setting": "CHRNA7 [1]; Exp 1, Ab1-42 (2.5 ng/ul) + 100 uM Dha, 18 hours", "value": "3.0E+06"}, {"measurement": "~56 kDa Band signal intensity", "setting": "CHRNA7 [1]; Exp 2, Ab1-42 (2.5 ng/ul) + 10 uM Dha, 18 hours", "value": "2.6E+06"}, {"measurement": "~56 kDa Band signal intensity", "setting": "CHRNA7 [1]; Exp 2, Ab1-42 (2.5 ng/ul) + 100 uM Dha, 18 hours", "value": "2.7E+06"}, {"measurement": "CHRNA7 expression (Western blot)", "setting": "CHRNA7 [1]; FIG. 5, DHA alone", "value": "increase"}, {"measurement": "CHRNA7 (56 kDa protein) expression, conclusion in words", "setting": "CHRNA7 [1]", "value": "upregulation"}, {"measurement": "CHRFAM7A expression (Western blot)", "setting": "CHRFAM7A [2]; DHA alone", "value": "decrease"}, {"measurement": "CHRFAM7A expression (Western blot)", "setting": "CHRFAM7A [2]; [6]", "value": "more pronounced"}, {"measurement": "CHRNA7 transcription (quantitative PCR)", "setting": "CHRNA7 [3]; DHA alone", "value": "increase"}, {"measurement": "CHRNA7 transcription (quantitative PCR)", "setting": "CHRNA7 [3]; [6]", "value": "more pronounced"}, {"measurement": "N/M ratio (CHRNA7/CHRFAM7A transcription)", "setting": "CHRNA7 [3]; [7]", "value": "increased; also recorded: higher"}, {"measurement": "CHRNA7 (\"N\") transcription relative to TPA-treated unstimulated condition", "setting": "CHRNA7 [3]; [7]", "value": "unaltered; also recorded: increases"}, {"measurement": "N/M ratio (CHRNA7/CHRFAM7A transcription)", "setting": "CHRNA7 [3]; stimulus as labelled, no Amyloid β added", "value": "increased"}, {"measurement": "CHRNA7 (\"N\") transcription relative to TPA-treated unstimulated condition", "setting": "CHRNA7 [3]; [8]", "value": "stable"}, {"measurement": "CHRFAM7A transcription (quantitative PCR)", "setting": "CHRFAM7A [4]; DHA alone", "value": "decrease"}, {"measurement": "CHRFAM7A transcription (quantitative PCR)", "setting": "CHRFAM7A [4]; [6]", "value": "more pronounced"}, {"measurement": "CHRFAM7A (\"M\") transcription relative to TPA-treated unstimulated condition", "setting": "CHRFAM7A [4]; [7]", "value": "reduces"}, {"measurement": "CHRFAM7A (\"M\") transcription relative to TPA-treated unstimulated condition", "setting": "CHRFAM7A [4]; [8]", "value": "reduced"}, {"measurement": "CHRNA7 expression (Western blot)", "setting": "CHRNA7 [5]", "value": "more pronounced"}]}, {"molecule": "Amyloid 13: the conventional amyloid beta peptide containing 40 amino acids", "values": [{"measurement": "CHRNA7 (\"N\") transcription relative to TPA-treated unstimulated condition", "setting": "CHRNA7 [3]; [8]", "value": "reduced"}, {"measurement": "CHRFAM7A (\"M\") transcription relative to TPA-treated unstimulated condition", "setting": "CHRFAM7A [4]; [8]", "value": "reduced"}]}, {"molecule": "COc1cc(OC)c(NC(=O)Nc2cc(C)on2)cc1Cl", "note": "[PNU-120596]", "values": [{"measurement": "CHRNA7 (\"N\") transcription relative to TPA-treated unstimulated condition", "setting": "CHRNA7 [3]; [8]", "value": "smaller changes"}, {"measurement": "CHRFAM7A (\"M\") transcription relative to TPA-treated unstimulated condition", "setting": "CHRFAM7A [4]; [8]", "value": "smaller changes"}]}]}
